SMILES strings stand for the structures.

For one experiment, the system named is OVCAR8. Briefly: drug sensitivity score (DSS) from 5-point dose-response viability curve (DSS (area-under-curve based score)); higher = more sensitive (stronger growth inhibition or killing); extreme values may be limits of the assay. The conditions noted are these: exposure time: 72 h; concentration range: 5 concentrations over 10,000-fold range. The gist of the method:
(§1)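 Viability of ovarian cancer and normal ovarian cell lines was read by CellTiter-Glo luminescence after 3 days at 37°C and 5% CO2 in 384-well plates holding 1,500 cells per well. Drugs had been dispensed in DMSO or water with an Echo 550 at five concentrations over a 10,000-fold range. Using Breeze software, a drug sensitivity score was assigned per cell line and drug, higher scores meaning more sensitive, and zero means no response.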
In turn, `COc1ccc(-c2ccc3ncc4c(c3c2)n(-c2ccc(N3CCNCC3)c(C(F)(F)F)c2)c(=O)n4C)cn1` [NVP-BGT226] yielded a drug sensitivity score of 14.9.

Take `Cc1ccc(C(=O)Nc2cccc(C(F)(F)F)c2)cc1Nc1nc(-c2cccnc2)nc2c1cnn2C` [NVP-BHG712]: the drug sensitivity score worked out at 4.9. Same read-out and setting: as for `COc1cc2c(cc1OC(C)C)[C@H](c1ccc(Cl)cc1)N(c1ccc(N(C)C[C@H]3CC[C@H](N4CCN(C)C(=O)C4)CC3)cc1)C(=O)C2` [NVP-CGM097], the figure is 5.7; as for `CN[C@@H](C)C(=O)N[C@H](C(=O)N1CCC[C@H]1c1nc(C(=O)c2ccc(F)cc2)cs1)C1CCCCC1` [NVP-LCL161], 8.5; as for `Cn1c(Nc2ccc(C(F)(F)F)cc2)nc2cc(Oc3ccnc(-c4ncc(C(F)(F)F)[nH]4)c3)ccc21` [NVP-RAF265], 1.9.

Compound `CC(=O)c1cc2c(o1)C(=O)c1ccccc1C2=O` [Napabucasin] showed a drug sensitivity score of 16.3. The same measure, in the same setting: as for `CC1(C)CCC(c2ccc(Cl)cc2)=C(CN2CCN(c3ccc(C(=O)NS(=O)(=O)c4ccc(N[C@H](CCN5CCOCC5)CSc5ccccc5)c(S(=O)(=O)C(F)(F)F)c4)cc3)CC2)C1` [Navitoclax], the figure is 0; as for `CN1C(=O)N[C@H](Cc2c[nH]c3c(Cl)cccc23)C1=O` [Necrostatin 2], 0. On the same count and under the same terms, as for `O=c1ncn2nc(Sc3ccc(F)cc3F)ccc2c1-c1c(Cl)cccc1Cl` [Neflamapimod], the figure is 0.9; as for `COc1nc(N)nc2c1ncn2[C@@H]1O[C@H](CO)[C@@H](O)[C@@H]1O` [Nelarabine], 0. On to `CCOc1cc2ncc(C#N)c(Nc3ccc(OCc4ccccn4)c(Cl)c3)c2cc1NC(=O)/C=C/CN(C)C` [Neratinib], for which the drug sensitivity score was 4.8. On the same count and under the same terms, for `Cc1cn(-c2cc(NC(=O)c3ccc(C)c(Nc4nccc(-c5cccnc5)n4)c3)cc(C(F)(F)F)c2)cn1` [Nilotinib] the value was 3.4; for `CC1(C)NC(=O)N(c2ccc([N+](=O)[O-])c(C(F)(F)F)c2)C1=O` [Nilutamide], 0; for `COC(=O)c1ccc2c(c1)NC(=O)/C2=C(\Nc1ccc(N(C)C(=O)CN2CCN(C)CC2)cc1)c1ccccc1` [Nintedanib], 3.2. Same read-out and setting: for `NC(=O)c1cccc2cn(-c3ccc([C@@H]4CCCNC4)cc3)nc12` [Niraparib] the value was 4.1.

The next experiment deals with Ovsaho. The experiment is described as above. The conditions noted are these: exposure time: 72 h; concentration range: 5 concentrations over 10,000-fold range. The gist of the method:
as §1
Consider `C[C@H]1C[C@@H]2[C@H]([C@@H](O)C[C@@]3(C)[C@H]2CC[C@]3(O)C(=O)CO)[C@@]2(C)C=CC(=O)C=C12` [Methylprednisolone], for which the drug sensitivity score was determined as 1. For `CO[C@@H]1[C@H](N(C)C(=O)c2ccccc2)C[C@H]2O[C@]1(C)n1c3ccccc3c3c4c(c5c6ccccc6n2c5c31)C(=O)NC4` [Midostaurin], the drug sensitivity score amounted to 14.1.

`CNC(=O)c1nn(C)c2c1C(C)(C)Cc1cnc(Nc3ccc(N4CCN(C)CC4)cc3)nc1-2` [Milciclib] showed a drug sensitivity score of 10.7. `CCCCCCCCCCCCCCCCOP(=O)([O-])OCC[N+](C)(C)C` [Miltefosine] returned a drug sensitivity score of 7.3. Compound `CO[C@@]12[C@H](COC(N)=O)C3=C(C(=O)C(C)=C(N)C3=O)N1C[C@@H]1N[C@@H]12` [Mitomycin C] gave a drug sensitivity score of 0. The same measure, in the same setting: as for `Clc1ccc(C(c2ccccc2Cl)C(Cl)Cl)cc1` (stereo not given) [Mitotane], the figure is 0; as for `O=C1c2c(O)ccc(O)c2C(=O)c2c(NCCNCCO)ccc(NCCNCCO)c21` [Mitoxantrone], 6.5; as for `CCS(=O)(=O)Nc1ccc(Oc2ccc(F)cc2F)c(-c2cn(C)c(=O)c3[nH]ccc23)c1` [Mivebresib], 22.8. On the same count and under the same terms, as for `Nc1ccccc1NC(=O)c1ccc(CNc2nccc(-c3cccnc3)n2)cc1` [Mocetinostat], the figure is 7.8.

`CCNC(=O)C[C@@H]1N=C(c2ccc(Cl)cc2)c2cc(OC)ccc2-n2c(C)nnc21` [Molibresib]: the drug sensitivity score came out at 9.3. The same measure, in the same setting: for `N#CCNC(=O)c1ccc(-c2ccnc(Nc3ccc(N4CCOCC4)cc3)n2)cc1` [Momelotinib] the value was 2.4. For `CC1(C)CNc2cc(NC(=O)c3cccnc3NCc3ccncc3)ccc21` [Motesanib], the drug sensitivity score was 3.5.

`CCCN(CCC)C(=O)C1=Cc2ccc(-c3ccc(C(=O)N4CCCC4)cc3)cc2N=C(N)C1` [Motolimod] returned a drug sensitivity score of 0. Same read-out and setting: for `FC(F)(F)c1ccc(/C=C/c2nc(COc3ccc(CCCCn4ccnn4)cc3)co2)cc1` [Mubritinib] the value was 0.5; for `Cc1cc(OCc2nnc(SC3CCCC3)n2-c2cccnc2)ccc1-c1ccc(S(C)(=O)=O)cc1` [NMS-873], 6.9. Same read-out and setting: for `COc1ccc(-c2ccc3ncc4c(c3c2)n(-c2ccc(N3CCNCC3)c(C(F)(F)F)c2)c(=O)n4C)cn1` [NVP-BGT226] the value was 15.6. Still for that read-out and setting: for `Cc1ccc(C(=O)Nc2cccc(C(F)(F)F)c2)cc1Nc1nc(-c2cccnc2)nc2c1cnn2C` [NVP-BHG712] the value was 2.9; for `COc1cc2c(cc1OC(C)C)[C@H](c1ccc(Cl)cc1)N(c1ccc(N(C)C[C@H]3CC[C@H](N4CCN(C)C(=O)C4)CC3)cc1)C(=O)C2` [NVP-CGM097], 5.8; for `CN[C@@H](C)C(=O)N[C@H](C(=O)N1CCC[C@H]1c1nc(C(=O)c2ccc(F)cc2)cs1)C1CCCCC1` [NVP-LCL161], 8.6.

Turning to `Cn1c(Nc2ccc(C(F)(F)F)cc2)nc2cc(Oc3ccnc(-c4ncc(C(F)(F)F)[nH]4)c3)ccc21` [NVP-RAF265], the drug sensitivity score amounted to 1.7.

In turn, `CC(=O)c1cc2c(o1)C(=O)c1ccccc1C2=O` [Napabucasin] had a drug sensitivity score of 17.3. On the same count and under the same terms, as for `CC1(C)CCC(c2ccc(Cl)cc2)=C(CN2CCN(c3ccc(C(=O)NS(=O)(=O)c4ccc(N[C@H](CCN5CCOCC5)CSc5ccccc5)c(S(=O)(=O)C(F)(F)F)c4)cc3)CC2)C1` [Navitoclax], the figure is 3; as for `CN1C(=O)N[C@H](Cc2c[nH]c3c(Cl)cccc23)C1=O` [Necrostatin 2], 0. Same read-out and setting: for `O=c1ncn2nc(Sc3ccc(F)cc3F)ccc2c1-c1c(Cl)cccc1Cl` [Neflamapimod] the value was 0. The same measure, in the same setting: for `COc1nc(N)nc2c1ncn2[C@@H]1O[C@H](CO)[C@@H](O)[C@@H]1O` [Nelarabine] the value was 0.

Compound `CCOc1cc2ncc(C#N)c(Nc3ccc(OCc4ccccn4)c(Cl)c3)c2cc1NC(=O)/C=C/CN(C)C` [Neratinib] came in with a drug sensitivity score of 0. In the case of `Cc1cn(-c2cc(NC(=O)c3ccc(C)c(Nc4nccc(-c5cccnc5)n4)c3)cc(C(F)(F)F)c2)cn1` [Nilotinib], the drug sensitivity score was determined as 0.

Take `CC1(C)NC(=O)N(c2ccc([N+](=O)[O-])c(C(F)(F)F)c2)C1=O` [Nilutamide]: the drug sensitivity score is 0. Still for that read-out and setting: as for `COC(=O)c1ccc2c(c1)NC(=O)/C2=C(\Nc1ccc(N(C)C(=O)CN2CCN(C)CC2)cc1)c1ccccc1` [Nintedanib], the figure is 5.5; as for `NC(=O)c1cccc2cn(-c3ccc([C@@H]4CCCNC4)cc3)nc12` [Niraparib], 2.1.

The values above are taken from the supplement of paper PMC11616607.
